Experimental findings from US20260028451A1, “Amido-Amine Hardener” (priority 2022, published 2026) are described below.

Molecules are shown by their SMILES.

One data set deals with T1, oestrogen receptor (Homo sapiens, UniProt P03372).
T1 construct: MELN cells [hER-stably transfected model of the human breast cancer MCF-7 cells]; endogenous in cells; host or cells: MELN cells (MCF-7 human breast cancer cells)
T1 sequence (P03372 1-595): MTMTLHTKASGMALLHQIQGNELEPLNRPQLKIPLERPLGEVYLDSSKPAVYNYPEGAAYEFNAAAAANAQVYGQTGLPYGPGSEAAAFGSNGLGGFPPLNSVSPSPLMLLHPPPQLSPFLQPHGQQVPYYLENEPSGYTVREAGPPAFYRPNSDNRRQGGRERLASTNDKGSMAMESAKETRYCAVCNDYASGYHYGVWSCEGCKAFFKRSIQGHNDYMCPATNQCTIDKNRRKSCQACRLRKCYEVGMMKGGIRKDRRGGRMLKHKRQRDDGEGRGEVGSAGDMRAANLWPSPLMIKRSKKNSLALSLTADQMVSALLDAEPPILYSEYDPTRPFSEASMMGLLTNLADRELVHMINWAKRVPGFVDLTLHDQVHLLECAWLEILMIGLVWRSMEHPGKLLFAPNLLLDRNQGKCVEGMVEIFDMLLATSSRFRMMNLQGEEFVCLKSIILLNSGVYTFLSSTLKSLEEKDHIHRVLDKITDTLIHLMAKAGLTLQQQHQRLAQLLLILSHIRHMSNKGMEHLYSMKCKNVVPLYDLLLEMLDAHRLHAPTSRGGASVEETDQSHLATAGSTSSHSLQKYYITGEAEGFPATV
Nature of the data set: Oestrogenic activity testing using MELN cells (ER-transactivation assay). It is filed as cell-based. The conditions noted are these: hER-stably transfected MCF-7. As for the experimental part:
Various phenolic compounds, such as phenolic Mannich bases may also pose a risk of acting as oestrogen agonists, this is thought to be due to structural similarity between the phenolic group and the phenolic group present in oestrogen itself. […] The tests were performed using MELN cells [hER-stably transfected model of the human breast cancer MCF-7 cells].

For the next data set, the system named is MELN cells. It is filed as cell-based, human. As for the experimental part:
The use of bisphenol A in epoxy systems is often avoided for this reason. Various phenolic compounds, such as phenolic Mannich bases may also pose a risk of acting as oestrogen agonists, this is thought to be due to structural similarity between the phenolic group and the phenolic group present in oestrogen itself. […]. The tests were performed using MELN cells [hER-stably transfected model of the human breast cancer MCF-7 cells]. The use of MELN cells for screening cytotoxicity and oestrogenic activity is a standard test known in the art, for example, as described in Berckmans P, Leppens H, Vangenechten C, Witters H., “Screening of endocrine disrupting chemicals with MELN cells, an ER-transactivation assay combined with cytotoxicity assessment”, Toxicol In Vitro. 2007, 21(7), 1262-7.

Data set [1] in a line: Viscosity at 25° C., ASTM D2556-14(2018). Format: physicochemical. The conditions noted are these: undiluted curative composition / product as prepared. As for the experimental part: This material was then diluted with benzyl alcohol in order to reduce the viscosity. The relationship between the viscosity (as measured by ASTM D2556-14(2018)) and the vol % dilution with benzyl alcohol is shown in FIG. 1. […] The properties of a 63:37 vol/vol mixture of salicylamide Mannich base C:benzyl alcohol are shown below in Table 7.

In the case of `CC(C)(c1ccc(O)cc1)c1ccc(O)cc1` [Bisphenol A, bisphenol A], the Agonist response entry at oestrogen receptor is “Positive”. The Cytotoxicity entry with MELN cells is listed as “No”.
Consider `NCCNCCNCCNCc1cc(CNCCNCCNCCN)c(O)c(C(=O)NCCNCCNCCN)c1` [Salicylamide Mannich Base A], for which, at oestrogen receptor, the Agonist response entry is “Negative”. The Cytotoxicity entry in the data set on MELN cells was “No”. Further, in data set [1], the “Viscosity at 25° C.” value is 1130 m · Pas.
With `C[C@]12CC[C@@H]3c4ccc(O)cc4CC[C@H]3[C@@H]1CC[C@@H]2O` [17β- oestradiol, 17β-oestradiol], in the data set with MELN cells, the Cytotoxicity result is given as “No”.
